pIC50: −log10 of the molar value.
Tests used:
[1] = Pharmacokinetic assay in mice; assay type: in vivo; settings: male, ICR, mouse, plasma, oral intragastric administration, 10 mg/kg
Protocol: Pharmacokinetic assay in mice was performed, wherein the mice used were 3 male ICR mice and fasted overnight. The mice were orally intragastrically dosed with the medicament (10 mg/kg). Blood was collected before administration and at 15 min, 30 min and 1 h, 2 h, 4 h, 6 h, 8 h, and 24 h after administration. Blood samples were centrifuged at 8000 rpm for 6 min at 4° C., and plasma was collected and stored at −20° C. The plasma at each time point was taken, and 3-5 times its amount of an acetonitrile solution containing an internal standard was added for mixing. The mixture was vortexed for 1 min and then centrifuged at 13000 rpm at 4° C. for 10 min. The supernatant was taken, and 3 times its amount of water was added for mixing. A proper amount of the resulting mixture was taken for LC-MS/MS analysis. The major pharmacokinetic parameters were analyzed using a non-compartmental model in the WinNonlin 7.0 software.

[2] = test system: spinal nerve-ligated rats; assay: Spinal nerve ligation neuropathic pain model in rats (Von-Frey mechanical pain threshold); assay type: in vivo, male SD rat; settings: SNL rats; for Mechanical pain threshold (Mean ± SD), base value before modeling: baseline before modeling
Source text: A male SD rat weighing 180-220 g was placed on an operating table in a prone position after anesthesia. An incision was made along the spinal column near the hip bone of the animal, and the fascia and muscle were separated. The L5 transverse process was carefully snapped off with a tweezer. The L5 nerve was separated with a glass needle, and the L5 nerve was ligated with 5-0 ligature. The muscle and the skin were sutured and disinfected with iodophor. After 14 days of modeling, the animals were divided into different groups, 10 animals each group. Different compounds were separately orally administered intragastrically. Mechanical pain thresholds of the animals were detected with Von-Frey fiber filaments at different time points after administration. The specific administration dose and detection time are detailed in Table 3 below.
(§1) The mechanical pain threshold detection method: The pelma of the hind limb to be tested of the test animal was continuously stimulated using the Von-Frey fiber filament to bend the fiber filament, and the foot shrinking reaction of the animal was observed. The tested animals were stimulated one by one according to the sequence of the gram number of the fiber filaments from small to large, and each gram number of the fiber filament was continuously used for stimulation for 5 times. If less than 3 positive reactions were present, the procedure described above was repeated using a larger grade of fiber filament, and if 3 or more positive reactions were present for the first time in the test, the fiber filament was the pain threshold for that animal (3 tests per animal for the average). Fiber filament gram number: 0.6, 1.0, 1.4, 2.0, 4.0, 6.0, 8.0, 10.0, and 15.0; the cut value was 15.0 g.

incision pain model rats = assay: Incision pain model in rats (Von-Frey mechanical pain threshold); assay type: in vivo, male SD rat; settings: for Mechanical pain threshold (Mean ± SD), base value before modeling: baseline before modeling
Protocol: A male SD rat weighing 200-250 g was fixed in a prone position after anesthesia. The lateral hind limb sole of the rat was flattened upwards, and the toes were fixed using an operation adhesive tape. Sterilization was performed. A 0.5 cm position of the plantar heel of the animal was incised with a scalpel towards the toe end to incise the fascia and the skin to make a longitudinal incision of about 1 cm. After the flexor digitorum brevis was lifted by the surgical forceps, the abdomen of the muscle was longitudinally incised with a scalpel without completely cutting off the muscle. The skin was sutured and disinfected. On the second day of modeling, the animals were divided into different groups, 8 animals each group. Different compounds were separately orally administered intragastrically. Mechanical pain thresholds of the animals were detected with Von-Frey fiber filaments at different time points after administration. The specific grouping administration dose and detection time are detailed in Table 4 below.
as §1

Nav1.8 ion channel = Nav1.8 ion channel (Homo sapiens (Human), UniProt Q9Y5Y9); assay: Inhibitory activity on Nav1.8 ion channel, whole-cell patch-clamp on HEK293/Nav1.8; assay type: cell-based; settings: HEK293/Nav1.8, whole-cell patch clamp, holding -80 mV, 1 μM TTX
Protocol: Reagents were purchased from Sigma (St. Louis, MO) except NaOH and KOH for acid-base titration. The final concentrations of the test compounds were all prepared on the day of the test and then dissolved in an extracellular fluid. The extracellular fluid (mM) was NaCl, 137; KCl, 4; CaCl2), 1.8; MgCl2, 1; HEPES, 10; glucose 10; and pH 7.4 (NaOH titration). All test and control compound solutions contained 1 μM TTX. The intracellular fluid (mM) was: aspartic acid, 140; magnesium chloride, 2; ethylene glycol tetraacetic acid (EGTA), 11; and N-2-hydroxyethylpiperazine-N′-2-ethanesulfonic acid (HEPES), 10. The pH was adjusted to 7.4 with cesium hydroxide.
The test compounds were dissolved in dimethylsulfoxide (DMSO) at a concentration of 9 mM. On the day of the test, the compounds were then dissolved in the extracellular fluid and prepared into the required concentration.
The cells were transferred to a perfusion chamber and perfusion was carried out using the extracellular fluid. The intracellular fluid was thawed on the day of the experiment. The electrodes were produced by pulling with PC-10 (Narishige, Japan). Whole-cell patch-clamp recording was carried out. Noise was filtered at one fifth of the sampling frequency. The intracellular fluid with ¼ length of the electrode tube was added into the electrode, and the electrode was installed on a probe. The required Protocol was set, the interface was adjusted to Membrane test, and Stage was adjusted to Bath. A positive pressure was applied in the electrode. The tip of the electrode was contacted with the cell. The three-way valve of the air extractor was adjusted to a three-way state. A negative pressure was then applied to the electrode, so that the electrode and the cell formed a high-resistance seal. Stage was adjusted to Patch, and leak was controlled within −200 pA. A negative pressure was successively applied, so that cell membranes were broken, and a current path was formed. Perfusion was carried out by opening the suction filtration device and the extracellular fluid valve. The cell current was observed, and administration was started when the cell current was stable (at least 3 sweep current curves were overlapped). Administration was performed from low concentration to high concentration. The administration time of each concentration was not less than 2 min, and when the current was stable, the concentration was changed for administration.
For administration of the test samples, perfusion was carried out using a perfusion system utilizing the self gravity. […] During the period, the CV % of all peak current amplitudes should be less than 10% to exclude up and down fluctuations of the initial current. The average of the peak current amplitudes recorded for the last 10 times during the initial recording served as the current peak of the negative control. After the initial current was stable, the test samples were dosed starting from a low concentration until the 10 recorded peak currents were again stable or the peak currents were “constant” after and before administration after continuous administration for 5 min. We defined the following two cases as “stable” or “constant”: 1) if the absolute average of the peak current for 10 consecutive scans exceeded 200 pA and the CV value was less than 10%, 2) or the average of the peak current for 10 consecutive scans was between 200 pA and 50 pA and the CV value was less than 30%. The next detection of higher concentration was then given.
The average of the peak current of the last 10 scans of each concentration was taken as the peak current for that concentration for data analysis. If the stable state was not reached within 5 min, the peak current average of the last 10 scans at that time was used for data analysis as the peak current for that concentration. At the same time, the cells were discarded and no longer used for detection of higher concentration. At least two cells were tested per concentration of the compounds. […]

Compound | AUC(0-t) [1] | Cmax [1] | Tmax [1] | half-life [1] | Mechanical pain threshold (Mean ± SD), base value before modeling ([2]; 100 mpk group) | Mechanical pain threshold (Mean ± SD), 3 h after administration ([2]; 100 mpk oral intragastric) | pIC50 (Nav1.8 ion channel) | also measured
O=C(Nc1cnc[n+]([O-])c1)c1cc(Cl)c(Cl)cc1Oc1ccc(OC(F)(F)F)cc1 [Compound I-1, 5-(4,5-Dichloro-2-(4-(trifluoromethoxy)phenoxy)benzamido)pyrimidine 1-oxide] | 17300 ng·h/mL | 7370 ng/mL | 0.25 h | 2.74 h | 13.6 ± 1.7 g | 11.1 ± 3.7 g | 7.85 | Mechanical pain threshold (Mean ± SD), 1 h after administration ([2]; 100 mpk oral intragastric): 11.0 ± 4.0 g; Mechanical pain threshold (Mean ± SD), base value before modeling (incision pain model rats; 100 mpk group): 12.6 ± 1.7 g; Mechanical pain threshold (Mean ± SD), 1 h after administration (incision pain model rats; 100 mpk oral intragastric): 12.5 ± 1.9 g; Mechanical pain threshold (Mean ± SD), 3 h after administration (incision pain model rats; 100 mpk oral intragastric): 11.4 ± 2.0 g; Mechanical pain threshold (Mean ± SD), 6 h after administration (incision pain model rats; 100 mpk oral intragastric): 8.4 ± 1.2 g
O=C(Nc1ccc[n+]([O-])c1)c1c(Oc2ccc(F)c3c2OC(F)(F)O3)cc(C(F)(F)F)c(Cl)c1F [Compound I-11, 3-(3-Chloro-2-fluoro-6-((2,2,7-trifluorobenzo[d][1,3]dioxol-4-yl)oxy)-4-trifluoromethyl-benzamido)pyridine 1-oxide] | 9070 ng·h/mL | 2240 ng/mL | 1 h | 2.18 h | 13.0 ± 2.8 g | 13.6 ± 2.0 g | 9.19 | Mechanical pain threshold (Mean ± SD), 6 h after administration ([2]; 100 mpk oral intragastric): 12.1 ± 2.5 g
O=C(Nc1ccc[n+]([O-])c1)c1cc(Cl)c(C(F)(F)F)cc1Oc1ccc(F)c2c1OC(F)(F)O2 [Compound I-23, 3-(5-chloro-2-((2,2,7-trifluorobenzo[d][1,3]dioxol-4-yl)oxy)-4-(trifluoromethyl)benzamido)pyridine 1-oxide] | 37900 ng·h/mL | 3450 ng/mL | 1 h | 2.53 h | – | – | 8.54 | –
[2H]C([2H])([2H])Oc1cc(OC(F)(F)F)ccc1Oc1cc(Cl)c(Cl)cc1C(=O)Nc1cnc[n+]([O-])c1 [Compound I-24, 5-(4,5-dichloro-2-(2-(methoxy-d3)-4-(trifluoromethoxy)phenoxy)benzamido)pyrimidine 1-oxide] | 4560 ng·h/mL | 1870 ng/mL | 0.5 h | 1.78 h | – | – | 8.66 | –
CC(C)C[C@H](CN)CC(=O)O [Pregabalin, reference compound] | – | – | – | – | – | – | – | Mechanical pain threshold (Mean ± SD), base value before modeling ([2]; 30 mpk group): 13.6 ± 2.7 g; Mechanical pain threshold (Mean ± SD), 1 h after administration ([2]; 30 mpk oral intragastric): 13.8 ± 2.3 g; Mechanical pain threshold (Mean ± SD), 3 h after administration ([2]; 30 mpk oral intragastric): 12.3 ± 2.9 g; Mechanical pain threshold (Mean ± SD), 6 h after administration ([2]; 30 mpk oral intragastric): 12.1 ± 2.3 g; Mechanical pain threshold (Mean ± SD), base value before modeling (incision pain model rats; 30 mpk group): 12.7 ± 1.7 g; Mechanical pain threshold (Mean ± SD), 1 h after administration (incision pain model rats; 30 mpk oral intragastric): 12.4 ± 1.9 g; Mechanical pain threshold (Mean ± SD), 3 h after administration (incision pain model rats; 30 mpk oral intragastric): 11.6 ± 1.1 g; Mechanical pain threshold (Mean ± SD), 6 h after administration (incision pain model rats; 30 mpk oral intragastric): 11.3 ± 1.4 g
